In patent publication US8318954B2, “Cleavable carnitine compound” (Nou Life Sciences, Inc., priority 2006, dated 2012):
Read-outs that look alike come from different tables or passages of the source.

Tests used:
[1] = system: C. elegans; experiment: Thermal avoidance (TAV) single intensity testing (6% laser intensity); type: in vivo
Procedure: (§1) One 24 well microtiter plate was set up and incubated overnight on the shaker at 20° C. Each well on the plate was set up with 600 L3/L4-stage N2 animals in NGM with a 1:20 dilution of concentrated HB101 E. coli (food source) in a volume of 300 μl. Before the animal/HB101 solution was added, test compounds were pipetted into wells. 3 μl each for the DMSO controls and LA dilutions were added to each well (1:100 dilutions). Controls and LA dilutions were done in triplicate (total of 9 wells).
6% Response tests—setup: All 9 wells from the 24 well plate were used for 6% testing and the entire well contents (600 animals) were used for each test. Prior to being placed on the agar plate for TAV testing each sample was processed as described for ‘Dose Responses’.
Dose Responses—general notes on analysis: Analysis similar as described in ‘Dose Responses’. In addition, ‘Response ratios’ as well as ‘A Speed responses’ both give measures of how much individual animals changed speed in response to the stimulus (additional information available upon request).
as §1, with “wells. 6” for “wells. 3”, “the water” for “the DMSO”, “and compound” for “and LA”, “well (1:50” for “well (1:100”, “of 15” for “of 9”
6% Response tests—setup: All 15 wells from the 24 well plate were used for 6% testing) and the entire well contents (600 animals) were used for each test. Prior to being placed on the agar plate for TAV testing each sample was processed as described for ‘Dose Responses’.
as §1, with “LC” for “LA”

[2] = system: C. elegans; experiment: Thermal avoidance (TAV) 3 step dose response testing; type: in vivo; details: for effects indicating increased sensory sensitivity: 0%, 6%, 12% laser intensity
Excerpt: The present invention includes a series of compounds that may be useful for increasing sensory neuron function in certain human neuropathological conditions. C. elegans contains a number of sensory neurons which are responsible for detecting a variety of external stimuli. One such stimulus (heat) can be detected and quantified in C. elegans by the use of thermal avoidance (TAV) technology available through NemaRx. The goal of this experiment was to provide an initial characterization of the compounds via TAV. Specifically, it was asked whether any of these compounds can lead to an increase in the thermal stimulus-induced behavioral response measured by TAV. N2 strain C. elegans animals were used for this project, which have ‘normal’, i.e. wildtype, sensory neuron function. Four compounds were received by NemaRx for TAV testing. These compounds were:
(§2) One 24 well microtiter plate was set up and incubated overnight on the shaker at 20 C. Each well on the plate was set up with 600 L3/L4-stage N2 animals in NGM with a 1:20 dilution of concentrated HB101 E. coli (food source) in a volume of 300 μl. Before the animal/HB101 solution was added, test compounds were pipetted into wells. For water controls and compound stocks/dilutions in water (DHLA, NAC) 6 μl was added to each well (1:50 dilutions). For DMSO controls and compound stocks/dilutions in DMSO (LA) 3 μl was added to each well (1:100 dilutions). No OD620 measurements were taken but the animals were visually scored after 19 h incubation.
Dose Responses—setup: All of the wells from the 24 well plate were used for dose response testing and the entire well contents (600 animals) were used for each test. Prior to being placed on the agar plate for TAV testing each sample was processed as follows: • sample were transferred to glass tube containing 7 ml PBS • animals were allowed to settle for 5 minutes before most of the supernatant was removed (approx. 0.5 ml remaining in tube) • 7 ml PBS was then added, mixed and animals were allowed to settle for 5 minutes most of the supernatant was then removed • animals were removed and transferred to TAV testing plate (NRx Application pattern A) • plate was allowed to dry for 10 minutes (plate cover removed) and TAV testing was initiated. Per plate settings for the dose response experiments were as follows:
Dose Responses—general notes on analysis: A response of the animals to a thermal stimulus (laser) which is applied to the head region can be detected both by a change in the direction of movement, as well as by a change in speed occurring within the test interval where the stimulus is applied. • direction of movement. […] Animals that show a strong change in the direction of movement, i.e. reversals, are classified as LR5 responders. […] LR5 responders show a thermal intensity-dependent increase in the speed of movement (starting off with less than <prelaser speed at low intensities up to > pre-laser speed at high intensities)
The dose response experiments for the current project were carried out with 0% (background control), 6% and 12% settings of laser intensity. In practice, 6% is on the edge of laser intensity required to detect an increase in the number of LR5 responders. As such, 6% should be a useful intensity-setting to detect compound-induced increased sensitivity in the animals. The 12% setting was chosen because this intensity typically gives a robust increase in the number of LR5 responders.
Total Responder speeds, ‘LR1 Responder speeds’ and ‘LR5 Responder speeds’ are shown as normalized speeds to allow better comparison between samples. For normalization purposes the average pre-laser speed is set at 1.0 and responder speeds are calculated relative to this value.
One 24 well microtiter plate was set up and incubated overnight on the shaker at 20° C. Each well on the plate was set up with 600 L3/L4-stage N2 animals in NGM with a 1:20 dilution of concentrated HB101 E. coli (food source) in a volume of 300 μl. […]

[3] = system: C. elegans; experiment: Visual scoring of C. elegans after overnight incubation with compound in 24 well plate; type: in vivo; details: DHLA1, 1:500 final concentration in well; 19 h incubation; L3/L4-stage N2 animals
Procedure: as §2
as §2, with “at 20°” for “at 20”, “For” for “For water controls and compound stocks/dilutions in water (DHLA, NAC) 6 μl was added to each well (1:50 dilutions). For”, “DMSO (LC)” for “DMSO (LA)”, “h incubation).” for “h incubation.”
as §2, with “at 20°” for “at 20”, “For” for “For water controls and compound stocks/dilutions in water (DHLA, NAC) 6 μl was added to each well (1:50 dilutions). For”, “DMSO (LC)” for “DMSO (LA)”, “after 22” for “after 19”, “h incubation).” for “h incubation.”

[4] = system: rats; details: cited from earlier work
[5] = system: mice and rats; details: individually or in combination at high doses, mice and rats; cited from earlier work
[6] = system: rats; details: 10 mg/kg cisplatin s.c. seven days, oral 300 mg/kg acetyl L-carnitine, 300 mg/kg carnitine mixture, 50 mg/kg α-lipoic acid; cited from earlier work
[7] = system: patients with chronic critical limb ischaemia; details: 1.2 g/day i.v. infusion for two weeks with calcium heparin 25,000 U/day s.c.; over baseline; cited from earlier work
[8] = system: male patients with intermediate claudication; details: cited from earlier work; for TcPCO: after treatment
[9] = system: C. elegans; experiment: Toxicity testing in C. elegans, 96 well plate, bacterial clearance (OD620); type: in vivo; details: highest concentration tested, 8 mM, L1-stage N2 animals, OD620 up to 44 hours, HCl
Procedure: The work plan included a i) characterization of the compounds for toxicity in C. elegans and then, using subtoxic concentrations, a ii) characterization of compound effects on neuronal sensitivity as detected by TAV technology. Toxicity characterization follows a well established standard operating protocol used in previous toxicity-type assays in C. elegans. The initial TAV characterization of compound-mediated effects on C. elegans used a number of compound concentrations and incubation times that were selected by NemaRx as being most likely to detect any TAV-related effects that the compounds may have. […] 0% provides a ‘background’ measure, 6% typically gives intermediate TAV responses (and as such should provide a good starting point to detect compound-mediated increased TAV responses), and 12% usually gives robust responses. No obvious effects were detected for either of the four compounds. While the experimental setup provides a good first pass, the limitation lies in the relatively small number of animals that are assayed at each intensity (30). Subtle effects compound-mediated up-regulation at 6% laser intensity may be missed. • Single Intensity Testing: The two highest non-toxic compound concentrations for each of the four compounds were tested at 6% laser intensity. The number of datapoints collected was between 50-80 LA and >100 for the three other compounds. […] The experiment was carried out in quadruplicate. […] Stock Dilution Setup
Two 96 well microtiter plates set up which were incubated at 20 C (both 96 well plates were identical, i.e. the experiment was done in duplicate). Each well on the plates was set up with 100 L1-stage N2 animals in NGM with a 1:20 dilution of concentrated HB101 E. coli (food source) in a volume of 50 μl. Compounds (see below) were then added to the wells. For water controls and compound stocks/dilutions in water (DH LA, NAC) 1 μl was added to each well (1:50 dilutions). For DMSO controls and compound stocks/dilutions in DMSO (LA) 0.5 μl was added to each well (1:100 dilutions). […]

[10] = after 600 mg i.v. infusion, compared to pre-treatment values

O=C(O)CCCC[C@@H](S)CCS (racemic) [DHLA, Dihydrolipoic acid]
effect such as increased percentage of LR5 responders ([1]; 1:1,000 or 1:2,500): No obvious effect detected | response of animals that show a LR5 response ('Responder ratios', 'A Speed responses') ([1]; 1:2,500 concentration): slightly stronger response | effects indicating increased sensory sensitivity ([2]; even at highest concentration of 1:500): No obvious effects detected | percentage of LR5 responders at 6% ([2]; second highest concentration (DHLA2)): relatively high | visual scoring of well clearance [3]: some bacteria remaining

C[N+](C)(C)CC(O)CC(=O)[O-] (centres unmarked) [Carnitine]
area of skin flap necrosis ([4]; group 1, 50 mg/kg/day for 1 week): 12.55 cm^2 | area of skin flap necrosis ([4]; group 2, 100 mg/kg/day for 1 week): 9.23 cm^2 | tolerability and toxicity [5]: good tolerability and limited toxicity

N.N.[Cl][Pt][Cl] [Cisplatin]
Equilibrium time [6]: 8.4 ± 0.8 s

CCC(=O)O[C@H](CC(=O)[O-])C[N+](C)(C)C [L-Propionyl Carnitine]
decrease in mean pain score [7]: 83% | decrease in mean ulcer size (diameter) [7]: 48% | increase in mean pain free walking distance (PWD) [7]: 78% | Perfusion units [8, 10]: did not change significantly | TcPO [8, 10]: did not change significantly | resting TcPCO ([8]; after 600 mg i.v. infusion): no significant effects | TcPCO ([8]; at hypoxia point): 90.2 mm Hg | Mean laser-Doppler power spectrum ([8]; at rest, after 600 mg i.v. infusion): 0.89 units | Mean laser-Doppler power spectrum ([8]; during reperfusion, after 600 mg i.v. infusion): 2.24 units | TcPCO ([8]; during reperfusion): 103.5 mm Hg

CC(=O)O[C@H](CC(=O)O)C[N+](C)(C)C.[Cl-] [NAC, N-Acetyl carnitine HCl]
effects indicating increased sensory sensitivity ([1]; 8 mM or 4 mM): No effects detected | effects indicating increased sensory sensitivity ([2]; even at highest concentration of 8 mM): No obvious effects detected | toxicity [9]: No toxic effects | toxicity ([9]; listed as N-Acetyl carnitine): no toxicity observed
